Results reported in ChEMBL document CHEMBL4190339, “Design, synthesis and preliminary biological evaluation of new [1,2,3]triazolo[4,5-d]pyrimidine/thiourea hybrids as antiproliferative agents” (Eur J Med Chem, 2017).
pIC50: −log10 of the molar value.

The compounds below were run on ECa-109 cell line (assay: Antiproliferative activity against human EC109 cells after 48 hrs by MTT assay). Conditions: ECa-109, 48 h.
Type: functional, cell-based

Compound	pIC50
CCCSc1nc(NCCNC(=S)NCc2ccccc2)c2nnn(CCc3ccccc3)c2n1	4.86
CCCSc1nc(NCCNC(=S)Nc2ccc([N+](=O)[O-])cc2)c2nnn(CCc3ccccc3)c2n1	4.24
CCCSc1nc(NCCNC(=S)Nc2cccc(Cl)c2)c2nnn(CCc3ccccc3)c2n1	4.93
CCCSc1nc(NCCNC(=S)Nc2ccc(C)cc2)c2nnn(CCc3ccccc3)c2n1	4.55
CCCSc1nc(NCCNC(=S)Nc2ccc(Br)cc2)c2nnn(CCc3ccccc3)c2n1	4.64
CCCSc1nc(NCCNC(=S)Nc2ccccc2Cl)c2nnn(CCc3ccccc3)c2n1	< 4.19
CCCSc1nc(NCCNC(=S)Nc2cccc(C(F)(F)F)c2)c2nnn(CCc3ccccc3)c2n1	4.75
CCCSc1nc(NCCNC(=S)Nc2cccc3ccccc23)c2nnn(CCc3ccccc3)c2n1	< 4.19
CCCSc1nc(NCCNC(=S)Nc2cccnc2)c2nnn(CC(C)C)c2n1	< 4.19

The compounds below were run on NCI-H1650 (assay: Antiproliferative activity against human NCI-H1650 cells after 48 hrs by MTT assay). Conditions: NCI-H1650, 48 h.
Type: functional, cell-based

Compound	pIC50
CCCSc1nc(NCCNC(=S)NCc2ccccc2)c2nnn(CCc3ccccc3)c2n1	< 4.19
CCCSc1nc(NCCNC(=S)Nc2ccc([N+](=O)[O-])cc2)c2nnn(CCc3ccccc3)c2n1	4.58
CCCSc1nc(NCCNC(=S)Nc2cccc(Cl)c2)c2nnn(CCc3ccccc3)c2n1	4.77
CCCSc1nc(NCCNC(=S)Nc2ccc(C)cc2)c2nnn(CCc3ccccc3)c2n1	4.23
CCCSc1nc(NCCNC(=S)Nc2ccc(Br)cc2)c2nnn(CCc3ccccc3)c2n1	4.29
CCCSc1nc(NCCNC(=S)Nc2ccccc2Cl)c2nnn(CCc3ccccc3)c2n1	4.74
CCCSc1nc(NCCNC(=S)Nc2cccc(C(F)(F)F)c2)c2nnn(CCc3ccccc3)c2n1	4.62
CCCSc1nc(NCCNC(=S)Nc2cccc3ccccc23)c2nnn(CCc3ccccc3)c2n1	5.19
CCCSc1nc(NCCNC(=S)Nc2cccnc2)c2nnn(CC(C)C)c2n1	4.82

These compounds were tested on MKN-45 (assay: Antiproliferative activity against human MKN45 cells after 48 hrs by MTT assay). Conditions: MKN-45, 48 h.
Type: functional, cell-based

Compound	pIC50
CCCSc1nc(NCCNC(=S)NCc2ccccc2)c2nnn(CCc3ccccc3)c2n1	4.64
CCCSc1nc(NCCNC(=S)Nc2ccc([N+](=O)[O-])cc2)c2nnn(CCc3ccccc3)c2n1	4.32
CCCSc1nc(NCCNC(=S)Nc2cccc(Cl)c2)c2nnn(CCc3ccccc3)c2n1	4.52
CCCSc1nc(NCCNC(=S)Nc2ccc(C)cc2)c2nnn(CCc3ccccc3)c2n1	4.30
CCCSc1nc(NCCNC(=S)Nc2ccc(Br)cc2)c2nnn(CCc3ccccc3)c2n1	4.40
CCCSc1nc(NCCNC(=S)Nc2ccccc2Cl)c2nnn(CCc3ccccc3)c2n1	< 4.19
CCCSc1nc(NCCNC(=S)Nc2cccc(C(F)(F)F)c2)c2nnn(CCc3ccccc3)c2n1	4.45
CCCSc1nc(NCCNC(=S)Nc2cccc3ccccc23)c2nnn(CCc3ccccc3)c2n1	5.01
CCCSc1nc(NCCNC(=S)Nc2cccnc2)c2nnn(CC(C)C)c2n1	4.72

The compounds below were run on A549 (assay: Antiproliferative activity against human A549 cells after 48 hrs by MTT assay). Conditions: A549, 48 h.
Type: functional, cell-based

Compound	pIC50
CCCSc1nc(NCCNC(=S)NCc2ccccc2)c2nnn(CCc3ccccc3)c2n1	< 4.19
CCCSc1nc(NCCNC(=S)Nc2ccc([N+](=O)[O-])cc2)c2nnn(CCc3ccccc3)c2n1	4.41
CCCSc1nc(NCCNC(=S)Nc2cccc(Cl)c2)c2nnn(CCc3ccccc3)c2n1	4.80
CCCSc1nc(NCCNC(=S)Nc2ccc(C)cc2)c2nnn(CCc3ccccc3)c2n1	4.37
CCCSc1nc(NCCNC(=S)Nc2ccc(Br)cc2)c2nnn(CCc3ccccc3)c2n1	4.49
CCCSc1nc(NCCNC(=S)Nc2ccccc2Cl)c2nnn(CCc3ccccc3)c2n1	< 4.19
CCCSc1nc(NCCNC(=S)Nc2cccc(C(F)(F)F)c2)c2nnn(CCc3ccccc3)c2n1	4.77
CCCSc1nc(NCCNC(=S)Nc2cccc3ccccc23)c2nnn(CCc3ccccc3)c2n1	4.39
CCCSc1nc(NCCNC(=S)Nc2cccnc2)c2nnn(CC(C)C)c2n1	4.98

What follows are compounds tested on GES1 (assay: Antiproliferative activity against human GES-1 cells after 48 hrs by MTT assay). Conditions: GES1, 48 h.
Type: cell-based

Compound	pIC50
O=c1[nH]cc(F)c(=O)[nH]1 [FLUOROURACIL]	5.04
CCCSc1nc(NCCNC(=S)NCc2ccccc2)c2nnn(CCc3ccccc3)c2n1	4.29
CCCSc1nc(NCCNC(=S)Nc2ccc([N+](=O)[O-])cc2)c2nnn(CCc3ccccc3)c2n1	4.45
CCCSc1nc(NCCNC(=S)Nc2cccc(Cl)c2)c2nnn(CCc3ccccc3)c2n1	4.22
CCCSc1nc(NCCNC(=S)Nc2ccc(C)cc2)c2nnn(CCc3ccccc3)c2n1	4.37
CCCSc1nc(NCCNC(=S)Nc2ccc(Br)cc2)c2nnn(CCc3ccccc3)c2n1	< 4.19
CCCSc1nc(NCCNC(=S)Nc2ccccc2Cl)c2nnn(CCc3ccccc3)c2n1	< 4.19
CCCSc1nc(NCCNC(=S)Nc2cccc(C(F)(F)F)c2)c2nnn(CCc3ccccc3)c2n1	4.63
CCCSc1nc(NCCNC(=S)Nc2cccc3ccccc23)c2nnn(CCc3ccccc3)c2n1	< 4.19
CCCSc1nc(NCCNC(=S)Nc2cccnc2)c2nnn(CC(C)C)c2n1	4.32

What follows are compounds tested on MGC-803 (assay: Antiproliferative activity against human MGC803 cells after 48 hrs by MTT assay). Conditions: MGC-803, 48 h.
Type: functional, cell-based

Compound	pIC50
CCCSc1nc(NCCNC(=S)NCc2ccccc2)c2nnn(CCc3ccccc3)c2n1	4.76
CCCSc1nc(NCCNC(=S)Nc2ccc([N+](=O)[O-])cc2)c2nnn(CCc3ccccc3)c2n1	< 4.19
CCCSc1nc(NCCNC(=S)Nc2cccc(Cl)c2)c2nnn(CCc3ccccc3)c2n1	4.57
CCCSc1nc(NCCNC(=S)Nc2ccc(C)cc2)c2nnn(CCc3ccccc3)c2n1	4.45
CCCSc1nc(NCCNC(=S)Nc2ccc(Br)cc2)c2nnn(CCc3ccccc3)c2n1	4.42
CCCSc1nc(NCCNC(=S)Nc2ccccc2Cl)c2nnn(CCc3ccccc3)c2n1	< 4.19
CCCSc1nc(NCCNC(=S)Nc2cccc(C(F)(F)F)c2)c2nnn(CCc3ccccc3)c2n1	4.47
CCCSc1nc(NCCNC(=S)Nc2cccc3ccccc23)c2nnn(CCc3ccccc3)c2n1	< 4.19
CCCSc1nc(NCCNC(=S)Nc2cccnc2)c2nnn(CC(C)C)c2n1	4.60
